The text below walks through data of paper PMC12530842, “Potent, Selective, and Drug‐Like G Protein‐Coupled Receptor Kinase 5 and 6 Inhibitors: Design, Synthesis, and X‐Ray Structural Studies” (Chemmedchem, 2025).

Test [1] addresses T1, GRK2 (Homo sapiens, UniProt P25098).
T1 construct: made in house
T1 sequence (P25098 1-689): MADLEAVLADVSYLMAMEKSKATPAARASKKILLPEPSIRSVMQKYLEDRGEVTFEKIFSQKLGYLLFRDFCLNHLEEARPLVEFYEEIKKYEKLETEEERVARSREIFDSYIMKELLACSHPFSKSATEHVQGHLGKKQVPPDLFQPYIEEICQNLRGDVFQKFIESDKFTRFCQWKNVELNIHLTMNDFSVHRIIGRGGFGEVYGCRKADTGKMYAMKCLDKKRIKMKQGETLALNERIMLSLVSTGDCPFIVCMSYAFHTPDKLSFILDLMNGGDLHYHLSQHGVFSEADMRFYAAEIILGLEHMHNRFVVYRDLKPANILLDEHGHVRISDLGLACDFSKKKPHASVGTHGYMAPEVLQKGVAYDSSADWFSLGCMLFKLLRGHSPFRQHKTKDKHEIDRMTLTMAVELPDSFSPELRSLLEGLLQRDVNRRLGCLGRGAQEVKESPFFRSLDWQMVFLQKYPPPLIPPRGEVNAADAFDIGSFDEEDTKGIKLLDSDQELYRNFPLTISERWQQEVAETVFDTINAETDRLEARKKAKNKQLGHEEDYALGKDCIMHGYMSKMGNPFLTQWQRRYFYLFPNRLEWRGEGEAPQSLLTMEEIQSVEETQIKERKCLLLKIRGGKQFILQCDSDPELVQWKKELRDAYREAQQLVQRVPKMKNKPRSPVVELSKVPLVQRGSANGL
The settings on record: earlier work; cited from earlier work.

For a further test, the target named is T2, GRK5 (Homo sapiens, UniProt P34947).
T2 construct: Human GR K5 (residues 1- 590) w ild- type and D 311N mutant w ere expressed in E. co li Rosetta; His tag (inferred from nickel-NTA purification); made in house; host or cells: E. coli Rosetta (DE3)
The test is described as follows: GRK5 kinase inhibition assay, phosphorylation of tubulin ([γ-32P]-ATP). In kind it is biochemical. To be noted: for Selectivity GRK2/GRK5: fold selectivity for GRK5 over GRK2; for IC50: phosphorylation of the soluble substrate tubulin, ± standard deviation from 3 to 4 independent experiments; for selectivity over GRK2: GRK5 vs GRK2, as stated in text. How it is done:
(§1) The inhibitory potency of synthetic compounds containing the N‐heterocyclic amide functionalities was evaluated against human GRK2, GRK5 and GRK6 using our in vitro assays‐, as reported previously.^[ [35], [37] ^] […] We then investigated the effect of (R)‐ and (S)‐Boc pyrrolidine carboxamide derivatives. […] These improvements of GRK5 IC50 values over their Boc‐derivatives (6c and 6d) indicated the bulky Boc group may not be able to fit as well in the catalytic site of these GRKs. On the other hand, sterically less demanding acetamide derivatives 6e and 6f were well accommodated consistent with their very good activity against GRK5, GRK6, and GRK2, but only with marginal selectivity against GRK2. […] We also examined the effect of 3(S)‐ and 3(R)‐Boc‐pyrrolidine derivatives.
(§2) Protein expression and purification.
(§3) Human GR K5 (residues 1- 590) w ild- type and D 311N mutant w ere expressed in E. co li Rosetta (D E3) and purified v ia nickel-nitrilotriacetic acid affinity chromatography, followed by tandem columns consisting of a HiTrap Q HP anion exchange chromatography column and a HiTrap SP HP cation exchange chromatography column, and finished by Superdex 200 Increase size -exclusion chromatography, as described previously. Human GRK6 (with T10A and mutations that eliminate palmitoylation sites) was expressed in Sf9 insect cells [ 2] and was purified w ith the same protocol for GR K5 [1]. Human GRK2 w as purified as described previously.
(§4) Kinase inhibition Assays.
(§5) Inhibit ion assays were conducted in a reaction mixture containing 20 mM H EPES pH 7. 0, 2 mM MgC l2, and 0.025% n- dodecyl-β-D-maltoside. Prior to reaction initiation, GR K5 or GR K6 at 50 nM was mixed w ith porcine brain tubulin ( PurSolutions) at a concentration of 500 nM. The assay w as started w ith a 30- second incubation of inhibitors, followed by the add it ion of 5 μ M ATP supplemented w ith radioactive [γ-32P]-AT P a t 60 C i/m mol (PerkinElm er Life Sciences). Re actions pro ceeded for 5 m inut es at ro o m te mpera ture a nd were terminated by adding 4X SDS loading buffer. T he reaction mixtures were then s eparated via SDS - PAG E, dried, and exposed using a phosphor imaging screen. Quantification was performed using a Personal Molecular Imager and Quantity One 1- D Analysis Software. Analogous inhibition assays were conducted on p urified GR K2 wit h a t ub ulin conce ntrat ion of 1 μ M. Data ana lysis was perf orme d usin g Graph Pa d Pr ism, and IC50 values wer e calculated based on three- parameter dose- dependent curves (with a Hill coefficient fixed at 1) plotting phosphate transfer against inhibitor concentration. At least three replicates were conducted to determine the mean and standard deviation of IC50 values as published previously . […]
(§6) (6) The final models w ere validated with MolProbity prior to depos ition along with structure factors in the Protein Data Bank. Atomic figures were created with Py mol (7). Cr ystallographic statistics are reported in Supplemental Table 1. Coordinates for inh ib itor 6t (GRL-098- 22) w ere deposited in the Protein Data Bank, with accession code 9BR K.
(§7) 1. Y. Chen, A. Sonawane, R. Manda, R. K. G adi, J. J. G. Tesmer, A. K. Ghosh. Development of a new class of potent and highly select ive G protein- coupled r eceptor kinase 5 inhibitors and structural insight from crystal structures of inhibitor complexes. Eur. J. Med. Chem. 2024, 264, 115931.
(§8) 2. D. T. Lodowski, V. M. T esmer, J. L. Benovic, J. J. Tesmer. The structure of G protein- coupled receptor kinase (GRK)-6 defines a second lineage of GRKs. J. Bio l. C he m. 2006, 281,16785- 16793.

The next test deals with T3, GRK6 (Homo sapiens, UniProt P43250, C561S/C562S/C565S/T10A).
T3 construct: His tag (inferred: purified by the GRK5 protocol, which starts with nickel-NTA); made in house; host or cells: Sf9 insect cells
Kind of test: GRK6 kinase inhibition assay, phosphorylation of tubulin ([γ-32P]-ATP). To be noted: for Selectivity GRK5/GRK6: fold selectivity for GRK6 over GRK5; for IC50: phosphorylation of the soluble substrate tubulin, ± standard deviation from 3 to 4 independent experiments. In kind it is biochemical. How it is done:
as §1, §2, §3, §4, §5, §6, §7, §8

Test [2] addresses T1, GRK2. Kind of test: GRK2 kinase inhibition assay, phosphorylation of tubulin ([γ-32P]-ATP). It is filed as biochemical. The settings on record: for IC50: phosphorylation of the soluble substrate tubulin, ± standard deviation from 3 to 4 independent experiments. How it is done: as §1, §2, §3, §4, §5, §6, §7, §8

Broadly, the IC50 is the concentration that inhibits the measured activity by half.

“Also recorded” adds a separate entry of the source. Read-outs that look alike come from different tables or passages of the source.

T3 sequence (P43250 whole entry T10A/C561S/C562S/C565S): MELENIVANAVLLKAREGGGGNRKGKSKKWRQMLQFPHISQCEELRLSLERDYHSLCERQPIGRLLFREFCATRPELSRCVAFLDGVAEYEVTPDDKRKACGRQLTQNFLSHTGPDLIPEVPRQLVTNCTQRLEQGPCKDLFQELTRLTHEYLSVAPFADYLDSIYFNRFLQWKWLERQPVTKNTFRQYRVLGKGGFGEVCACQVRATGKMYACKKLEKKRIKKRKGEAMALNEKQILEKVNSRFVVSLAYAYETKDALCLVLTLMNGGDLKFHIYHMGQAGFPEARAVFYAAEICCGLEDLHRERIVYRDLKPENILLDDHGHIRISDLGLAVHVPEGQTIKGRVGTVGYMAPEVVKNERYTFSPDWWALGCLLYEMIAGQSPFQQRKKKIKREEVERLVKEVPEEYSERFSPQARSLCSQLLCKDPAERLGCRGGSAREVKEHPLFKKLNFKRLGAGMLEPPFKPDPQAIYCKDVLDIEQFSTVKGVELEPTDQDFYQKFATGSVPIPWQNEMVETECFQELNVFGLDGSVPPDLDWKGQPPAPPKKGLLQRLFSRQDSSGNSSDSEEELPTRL
T2 sequence (P34947 whole entry, the tested form may be a part): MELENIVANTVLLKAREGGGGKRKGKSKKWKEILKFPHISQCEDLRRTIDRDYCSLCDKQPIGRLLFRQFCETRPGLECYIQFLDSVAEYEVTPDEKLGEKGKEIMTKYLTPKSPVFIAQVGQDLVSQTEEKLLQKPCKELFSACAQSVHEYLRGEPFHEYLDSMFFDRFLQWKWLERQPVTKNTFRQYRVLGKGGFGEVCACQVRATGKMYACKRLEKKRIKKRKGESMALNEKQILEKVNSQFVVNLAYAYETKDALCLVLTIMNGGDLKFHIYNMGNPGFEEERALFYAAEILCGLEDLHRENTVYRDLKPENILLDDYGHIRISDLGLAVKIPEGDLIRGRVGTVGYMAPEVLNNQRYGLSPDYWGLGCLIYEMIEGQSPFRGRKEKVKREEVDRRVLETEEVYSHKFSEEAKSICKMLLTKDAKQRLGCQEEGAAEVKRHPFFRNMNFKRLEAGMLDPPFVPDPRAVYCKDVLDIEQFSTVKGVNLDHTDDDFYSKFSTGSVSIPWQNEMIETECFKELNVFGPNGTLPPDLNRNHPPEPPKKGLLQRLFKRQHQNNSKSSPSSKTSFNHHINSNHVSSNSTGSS

Consider `Cc1[nH]c(/C=C2\C(=O)Nc3ccc(C(=O)N[C@H](C)c4ccc(F)cc4)cc32)c(C)c1NC(=O)CCl` [compound 1], for which the IC50 on GRK2 [1] is 1200 nM.

Turning to `Cc1[nH]c(C=C2C(=O)Nc3ccc(C(=O)NC(C)c4ccc(F)cc4)cc32)c(C)c1NC(=O)C1C=CCN1C(=O)OC(C)(C)C` [6i, Tert‐Butyl(S)‐2‐((5‐(((Z)‐5‐(((R)‐1‐(4‐Fluorophenyl)Ethyl)Carbamoyl)‐2‐Oxoindolin‐3‐yl‐ Idene)Methyl)‐2,4‐Dimethyl‐1H‐Pyrrol‐3‐Yl)Carbamoyl)‐2,5‐Dihydro‐1H‐Pyrrole‐1‐Carboxylate], at GRK5, the “GRK5 IC50 (in words)” value is reported as “sub‐micromolar; also recorded: low micromolar range”, the “Selectivity GRK2/GRK5” value is recorded as 130 fold and the IC50 worked out at 920 ± 500 nM. Also, at GRK6, the “GRK6 IC50 (in words)” value is given as “sub‐micromolar; also recorded: low micromolar range”, the “Selectivity GRK5/GRK6” value is listed as 2 fold and the IC50 is 500 ± 200 nM. Besides, at GRK2 [2], the “activity against GRK2 (in words)” value is reported as “little to no activity” and inhibition was half-maximal at 120000 ± 50000 nM (IC50).

In the case of `Cc1[nH]c(/C=C2\C(=O)Nc3ccc(C(=O)N[C@H](C)c4ccc(F)cc4)cc32)c(C)c1NC(=O)[C@@H]1CCCN(C(=O)OC(C)(C)C)C1` [6p, Tert‐Butyl(R)‐3‐((5‐(((Z)‐5‐(((R)‐1‐(4‐Fluorophenyl)Ethyl)Carbamoyl)‐2‐Oxoindolin‐3‐Ylidene)Methyl)‐2,4‐Dimethyl‐1H‐Pyrrol‐3‐Yl)Carbamoyl)Piperidine‐1‐Carboxylate], at GRK5, the “selectivity over GRK2” value was “over 1500 fold”, the “Selectivity GRK2/GRK5” value is given as 1500 fold and it took 410 ± 100 nM to reach half-maximal inhibition (IC50). For the same compound, at GRK6, the “Selectivity GRK5/GRK6” value worked out at 1 fold and the IC50 is 340 ± 300 nM. Also, at GRK2 [2], the IC50 is 610000 ± 450000 nM.

For `Cc1[nH]c(/C=C2\C(=O)Nc3ccc(C(=O)N[C@H](C)c4ccc(F)cc4)cc32)c(C)c1NC(=O)[C@@H]1C=CCN1` [6j, (Z)‐3‐((4‐((S)‐2,5‐Dihydro‐1H‐Pyrrole‐2‐Carboxamido)‐3,5‐Dimethyl‐1H‐Pyrrol‐2‐Yl)Methylene)‐N‐((R)‐1‐(4‐Fluorophenyl)Ethyl)‐2‐Oxoindoline‐5‐Carboxamide], on GRK5, the “selectivity over GRK2” value is given as “over 15 fold”, the “Selectivity GRK2/GRK5” value came out at 16 fold and 30 ± 4 nM corresponded to half-maximal inhibition (IC50). Also, at GRK6, the “Selectivity GRK5/GRK6” value is recorded as 1 fold and the IC50 stood at 30 ± 10 nM. Further, on GRK2 [2], half-maximal inhibition (IC50) was put at 480 ± 400 nM.

Regarding `Cc1[nH]c(/C=C2\C(=O)Nc3ccc(C(=O)N[C@H](C)c4ccc(F)cc4)cc32)c(C)c1NC(=O)[C@H]1CNCCN1` [6u, (Z)‐3‐((3,5‐Dimethyl‐4‐((R)‐Piperazine‐2‐Carboxamido)‐1 H‐Pyrrol‐2‐Yl)Methylene)‐N‐((R)‐1‐(4‐Fluorophenyl)Ethyl)‐2‐Oxoindoline‐5‐Carboxamide], the “Selectivity GRK2/GRK5” value on GRK5 is 15 fold. For the same compound, the IC50 at GRK5 was 14 ± 1 nM; at GRK6, 50 nM; on GRK2 [2] it was 210 ± 100 nM.

With `Cc1[nH]c(/C=C2\C(=O)Nc3ccc(C(=O)N[C@H](C)c4ccc(F)cc4)cc32)c(C)c1NC(=O)[C@@H]1CCCN1` [6h, (Z)‐3‐((3,5‐Dimethyl‐4‐((S)‐pyrrolidine‐2‐carboxamido)‐1H‐pyrrol‐2‐yl)methylene)‐N‐((R)‐1‐(4‐fluorophenyl)ethyl)‐2‐oxoindoline‐5‐carboxamide], on GRK5, the “Selectivity GRK2/GRK5” value came to 1 fold and half-maximal inhibition (IC50) was put at 90 ± 40 nM. Further, at GRK6, the “Selectivity GRK5/GRK6” value is given as 3 fold and half-maximal inhibition (IC50) required 34 ± 10 nM. For the same compound, on GRK2 [2], the IC50 turned out to be 80 ± 10 nM.
